We go through nine compounds from ChEMBL document CHEMBL1132145, “Effects of C-4 stereochemistry and C-4' hydroxylation on the iron clearing efficiency and toxicity of desferrithiocin analogues” (1999).

Holding throughout (assay type): functional
Test [1] has as its system Monkey. Description: The compound was tested in vivo for the iron clearing activity against non -iron-overloaded Cebus apella monkey at a concentration of 300 uM/Kg with distilled water.
Test [2] concerns Monkey. Description: The compound was tested in vivo for the iron clearing activity against non -iron-overloaded Cebus apella monkey at a concentration of 150 uM/Kg.
Test [3] relates to Monkey. The test is described as follows: The compound was tested in vivo for the iron clearing activity against non -iron-overloaded Cebus apella monkey at a concentration of 150 uM/Kg, with distilled water.
Test [4] relates to Monkey. The test is described as follows: The compound was tested in vivo for the iron clearing activity against non -iron-overloaded Cebus apella monkey at a concentration of 300 uM/Kg.
Test [5] deals with Rattus norvegicus. Description: The compound was tested in vivo for the iron clearing activity against non-iron-overloaded-bile duct cannulated rat, at a concentration of 150 uM/Kg.
Test [6] deals with Monkey. Description: The compound was tested in vivo for the iron clearing activity against non -iron-overloaded Cebus apella monkey at a concentration of 300 uM/Kg.
For test [7], the system named is Monkey. Description: The compound was tested in vivo for the iron clearing activity against non-iron-overloaded Cebus apella monkey, values in parentheses indicate the % breakdown of iron excreted in stool and urine, at a concentration of 75 uM/Kg.
Test [8] relates to Monkey. Description: The compound was tested in vivo for the iron clearing activity against non-iron-overloaded Cebus apella monkey, values in parentheses indicate the % breakdown of iron excreted in stool and urine, at a concentration of 300 uM/Kg.
The test system of test [9] is Rattus norvegicus. Description: The compound was tested in vivo for the iron clearing activity against non-iron-overloaded-bile duct cannulated rat, at a concentration of 150 uM/Kg(po).
Test [10] has as its system Monkey. Description: The compound was tested in vivo for the iron clearing activity against non -iron-overloaded Cebus apella monkey at a concentration of 150 uM/Kg.
Test [11] relates to Monkey. The test is described as follows: The compound was tested in vivo for the iron clearing activity against non -iron-overloaded Cebus apella monkey at a concentration of 75 uM/Kg.

Turning to `O=C(O)[C@H]1CSC(c2ccc(O)cc2O)=N1`, the Efficiency came to 4.8% in test [1]; 4.2% in test [2]; 5.6% in test [3]; 5.6% in test [4]; 2.4% in test [5].
As to `O=C(O)[C@H]1CSC(c2ncccc2O)=N1`, the Efficiency was 4.8% in [2], 8% in test [6] and 2.4% in test [5].
On to `O=C(O)[C@H]1CSC(c2ccccc2O)=N1`, for which the Efficiency in test [6] came out at 12.4%; in test [5] it was 1.4%.
Turning to `C[C@]1(C(=O)O)CSC(c2ccccc2O)=N1`, the values for the Efficiency in test [7], in test [6] and in [5] were 21.5%, 13.1% and 2.7%, respectively.
With `O=C(O)[C@@H]1CSC(c2ncccc2O)=N1`, the Efficiency in [2] turned out to be 0.5%; in [5] it was 3.9%.
With `O=C(O)[C@@H]1CSC(c2ccccc2O)=N1`, the Efficiency in test [8] is 8.2%; in test [5] it was 4.2%.
Regarding `O=C(O)[C@@H]1CSC(c2ccc(O)cc2O)=N1`, the values for the Efficiency in test [9] and in test [10] were less than 0.5% and 1.7%, respectively.
As to `C[C@]1(C(=O)O)CSC(c2ccc(O)cc2O)=N1` [DEFERITRIN], the Efficiency in [10] is reported as 13.4%; in test [11], 17.7%; in [5] it was less than 0.5%.
On to `C[C@]1(C(=O)O)CSC(c2ncccc2O)=N1` [DESFERRITHIOCIN], for which the figures for the Efficiency in test [2] and in [5] were 16.1% and 5.5%, respectively.
